Measured values as given in patent US20260035338A1, “AMINO LIPID COMPOUND AND LIPID NANOPARTICLE FOR DELIVERING BIOACTIVE INGREDIENT” (SHENZHEN SHENXIN BIOTECHNOLOGY CO., LTD., priority 2022, published 2026).

Key:
[1] = tested on: BALB/c mice; test: In vivo delivery of Fluc mRNA-encapsulating LNP formulations, luciferase signal by In Vivo Imaging System (IVIS); conditions: tail vein injection (IV) 70 μL, female BALB/c mice, 6 hours after injection; for Average number of photons (Total in-vivo flux): LNP formulation encapsulating Fluc mRNA (Lipid:DSPC:CHO-HP:M-DMG-2000 48:10:40.5:1.5); for Average number of photons (Liver) / Average number of photons (Spleen): LNP formulation encapsulating Fluc mRNA
Experimental: Animal preparation: Female BALB/c mice of 6-8 weeks old were selected and raised in an SPF grade breeding room. Animal testing was conducted in strict accordance with the guidelines of national health institutions and animal ethics requirements.
In vivo Delivery: prior to injection of the test LNP formulation, the LNP formulation was gently and repeatedly inverted to thoroughly mix the sample of the formulation. A corresponding amount of the LNP formulation was aspirated with a 1 ml insulin syringe, and the LNP formulation was injected by tail vein injection (IV), with 3 mice in duplicate per formulation. Each mouse was injected with 70 μL of the corresponding LNP formulation encapsulating the luciferase mRNA (Fluc mRNA) prepared in Experimental Example 1.
6 hours after injection of LNP formulations, mice were injected with 200 μL D-Luciferin luciferase developing substrate (Catalog No. 122799; Manufacturer: Perkin Elmer). After the substrate was injected, the mice were anesthetized with isoflurane inhalation, and the injection time of luciferase developing substrate was recorded.
The encapsulation efficiency of the lipid nanoparticle encapsulating luciferase mRNA (Fluc mRNA) with a representative amino lipid compound and the fluorescence expression intensity induced by the same are shown in Table 4, with the LNP formulation containing SM-102, 1001 or ALC-0315 as a control LNP formulation. The preparation method of the control LNP formulation was basically the same as that of the LNP formulations in Experimental Example 1, with the difference lying in that the amino lipid compounds of the present disclosure were replaced with SM-102, 1001 or ALC-0315 in the preparation of the control LNP formulation.

[2] = tested on: immune cell populations in the spleen and PBMC; test: Delivery efficiency of eGFP mRNA LNP to immune cell populations in spleen and peripheral blood (flow cytometry); type: in vivo; conditions: eGFP mRNA encapsulating LNP, intravenous, C57BL/6 mice, 12 hours, flow cytometry (FIG. 6 to 7)
Experimental: C57BL/6 mice (3 mice per group) were intravenously injected with eGFP mRNA encapsulating LNP. After 12 hours, the mice were dissected, and the spleen and peripheral blood, were collected to prepare single-cell suspensions of various tissues and organs. After blocking with Fc blocking antibodies and surface staining with fluorescent-labeled antibodies, flow cytometry was conducted to analyze the expression levels of eGFP in various immune cell populations to confirm the delivery efficiency of lipid nanoparticles comprising different amino lipid compounds to immune cell populations in different tissues and organs.
“Blank” in FIG. 6 and FIG. 7 refers to the control group injected with 100 μL Tris buffer.

Row | SMILES | Average number of photons (Total in-vivo flux) [1] | Average number of photons (Liver) [1] | Average number of photons (Spleen) [1] | delivery efficiency to immune cell populations (eGFP expression) [2]
1 | CCCCCCCCCOC(CCCOC(=O)CCCCCCCCC(CCCCCCCCC(=O)OCCCC(OCCCCCCC)OCCCCCCCC)OC(=O)OCCCN(CC)CC)OCCCCCCCCC (centres unmarked) [compound 869] | 1.22E+07 | 2.15E+06 | 5.40E+04 | –
2 | CCCCCCCCCOC(CCCOC(=O)CCCCCCCCC(CCCCCCCCC(=O)OCCCC(OCCCCCCCCC)OCCCCCCCCC)OC(=O)OCCCN(C)C)OCCCCCCCCC [compound 849] | 2.67E+07 | 4.12E+06 | 1.82E+05 | –
3 | CCCCCCCCCCCOC(=O)CCCCCN(CCO)CCCCCCCC(=O)OC(CCCCCCCC)CCCCCCCC [SM-102, reference compound] | 3.00E+08 | 6.19E+07 | 6.42E+06 | –
4 | CCCCCCOC(CCCOC(=O)CCCCCCC(CCCCCCC(=O)OCCCC(OCCCCCC)OCCCCCC)OC(=O)OCCCN(C)C)OCCCCCC [compound 2040] | 1.53E+08 | 2.97E+07 | 1.11E+07 | –
5 | CCCCCOC(CCCOC(=O)CCCCCCCCC(CCCCCCCCC(=O)OCCCC(OCCCCC)OCCCCC)OC(=O)OCCCN(CC)CC)OCCCCC [compound 387] | 6.66E+07 | 7.15E+06 | 6.77E+05 | –
6 | CCCCCCCOC(CCCOC(=O)CCCCCCCCC(CCCCCCCCC(=O)OCCCC(OCCCCCCC)OCCCCCCC)OC(=O)OCCCN(CC)CC)OCCCCCCC [compound 383] | 6.10E+07 | 8.57E+06 | 1.53E+06 | –
7 | CCCCCCOC(CCCOC(=O)CCCCCCCCC(CCCCCCCCC(=O)OCCCC(OCCCCCC)OCCCCCC)OC(=O)OCCCN(C)C)OCCCCCC [compound 388] | 1.94E+08 | 3.66E+07 | 1.34E+06 | different delivery preferences to different immune cells
8 | CCCCCCCCCOC(CCCOC(=O)CCCCCCCCC(CCCCCCCCC(=O)OCCCC(OCCCCC)OCCCCC)OC(=O)OCCCN(CC)CC)OCCCCCCCCC (centres unmarked) [compound 864] | 3.66E+07 | 6.58E+06 | 2.33E+05 | –
9 | CCCCCCOC(CCCOC(=O)CCCCCCCCC(CCCCCCCCC(=O)OCCCC(OCCCCCC)OCCCCCC)OC(=O)OCCCN1CCCC1)OCCCCCC [compound 396] | 1.85E+08 | 3.24E+07 | 9.78E+05 | –
10 | CCCCCCOC(CCCOC(=O)CCCCCC(CCCCCC(=O)OCCCC(OCCCCCC)OCCCCCC)OC(=O)OCCCN(C)C)OCCCCCC [compound 2039] | 2.05E+08 | 4.26E+07 | 3.75E+07 | different delivery preferences to different immune cells
11 | CCCCCCCOC(CCCOC(=O)CCCCCCCCC(CCCCCCCCC(=O)OCCCC(OCCCCCC)OCCCCCC)OC(=O)OCCCN(CC)CC)OCCCCCCC (centres unmarked) [compound 865] | 4.34E+07 | 8.60E+06 | 3.25E+05 | –
12 | CCCCCCOC(CCCNC(=O)OCCCCCCCC(CCCCCCCCCOC(=O)NCC(OCCCCCC)OCCCCCC)OC(=O)OCCCN(CC)CC)OCCCCCC (centres unmarked) [compound 459] | 3.42E+07 | 5.09E+06 | 2.52E+06 | –
13 | CCC/C=C\COC(=O)CCCOC(=O)CCCCCCCCC(CCCCCCCCC(=O)OCCCC(OC/C=C\CCC)OC/C=C\CCC)OC(=O)OCCCN(CC)CC (centres unmarked) [compound 438] | 5.78E+07 | 8.47E+06 | 1.07E+06 | –
14 | CCCCCCOC(CCCCCOC(=O)CCCCCCCCC(CCCCCCCCC(=O)OCCCCCC(OCCCCCC)OCCCCCC)OC(=O)OCCCN(CC)CC)OCCCCCC [compound 389] | 2.99E+07 | 4.14E+06 | 8.58E+04 | –
